{"source": "patent US12264299B2", "about": "“Detergent composition” (SYMRISE AG, priority 2018, dated 2025)", "test_system": "Corynebacterium xerosis ATCC373 and Staphylococcus aureus ATCC6538", "experiment": "Microbial counts on inoculated synthetic fabric after washing and drying", "type": "cell-based", "conditions": "comparison of groups, 24 and 72 hours results", "excerpt": "The objective of the following examples and comparison examples has been to evaluate bactericide and bacteriostatic performance of a specific active composition (SymClariol, Symrise AG) at 0.25% and 1% in a regular fabric softener composition.\nInoculate Corynebacterium xerosis ATCC373 and Staphylococcus aureus ATCC6538 in white synthetic fabric 89% polyester and 11% elastane. SymClariol stands for 1,2-decanediol and is a commercially available product distributed by Symrise AG.\nCut the fabric in pieces of 10 cm×10 cm (100 cm^2) to be inoculate.\nIt was used: • Corynebacterium xerosis ATCC373 strain in saline solution 0.85% • Staphylococcus aureus ATCC6538 strain in saline solution 0.85% • Sterile Saline solution to wet the fabric • Liquid laundry detergent Tixan Ipê batch 065091 16:30 manufactured in March, 2016 and expiration date March, 2018 • Regular Fabric Softener+Active 1 (SymClariol at 0.25%) • Regular Fabric Softener+Active 2 (SymClariol at 1%) • Regular Fabric Softener Placebo • Wash machine Electrolux\nAll materials were analyzed before the beginning of the tests and had <10 CFU/g for bacteria and fungi and absence of pathogens. An initial wash of the tissue was carried out with the purpose of reducing the initial microbiological count and subsequent counting for a reduction confirmation of 10 CFU/g and absence of pathogens. […]"}
{"smiles": "CCCCCCCCC(O)CO", "note": "(stereo not shown) [SymClariol, 1,2-decanediol]", "values": [{"measurement": "bactericide and bacteriostatic performance (in words)", "result": "improved the bactericide and bacteriostatic performance"}]}
